# Tested on: liver fibrosis gene panel (770 genes)
# Test: Nanostring nCounter Fibrosis panel gene expression in liver of DEN-injected mice
# Type: in vivo, mouse
# Conditions: vs vehicle
# Protocol: Nanostring Analysis. RNA was extracted from paired liver and tumor tissue from vehicle, Compound I-1 (100 mg/kg) and Compound I-32 (100 mg/kg) treated mice using an RNeasy kit (Qiagen, Calif., USA) as per manufacturer's protocol. All RNA samples passed the BioAnalyzer quality control test. The expression of target genes in liver and tumor were analyzed using the nCounter Fibrosis and Cancer Panel (NanoString Technologies, Inc., WA, USA), respectively according to manufacturer's protocol at the McMaster Genomics Facility. Technical and biological normalization against global geometric mean was performed in nSolver 4.0 software (NanoString Technologies). Technical normalization was performed in the nSolver software (version 4.0.70) by normalizing sample target raw counts to the geometric mean of positive control spike-ins. Biological normalization was performed by normalizing sample target raw counts to the geometric mean of selected housekeeping genes (Ppia, Nubp1, Nol7, Armh3, Rplp0, Cnot10, Pgk1, and Acad9). Pathway scores were calculated as the first principal component of the normalized expression values for all genes in each pathway and samples were compiled according to experimental groups to determine average pathway scores. Statistical significance was calculated between experimental groups using multiple t-tests and p-values were corrected for multiple comparisons using Benjamin-Hochberg false discovery rate.
# Molecular analysis. To identify the pathways modulated in the liver and tumor tissue, nanostring analysis of fibrosis and cancer, pathways, respectively were completed in an n=8 mice treated with vehicle or Compound I-32 or Compound I-1 at 100 mg/kg.
smiles,measurement,setting,value
"CC(C)(CCCCc1ccc(CCCCC(C)(C)C(=O)O)cc1)C(=O)O [Compound I-1, 6-[4-(5-carboxy-5-methylhexyl)-phenyl]-2,2-dimethylhexanoic acid]",Tin1 Log2FC,"NM_011602, 100 mg/kg",−0.237
same,Txn1 Log2FC,"NM_011660, 100 mg/kg",0.281
same,Vegfb Log2FC,"NM_011697, 100 mg/kg",0.603
same,Vim Log2FC,"NM_011701, 100 mg/kg",−0.309
same,Adh4 Log2FC,"NM_011996, 100 mg/kg",−0.808
same,Apoa2 Log2FC,"NM_013474, 100 mg/kg",0.172
same,Apoh Log2FC,"NM_013475, 100 mg/kg",−0.225
same,C9 Log2FC,"NM_013485, 100 mg/kg",−1.55
same,Cpt1a Log2FC,"NM_013495, 100 mg/kg",−0.302
same,Creb3 Log2FC,"NM_013497, 100 mg/kg",−0.38
same,P3h3 Log2FC,"NM_013534, 100 mg/kg",−0.96
same,Ptpn6 Log2FC,"NM_013545, 100 mg/kg",0.326
same,Slc25a10 Log2FC,"NM_013770, 100 mg/kg",0.508
same,H2-M3 Log2FC,"NM_013819, 100 mg/kg",−0.69
same,Xbp1 Log2FC,"NM_013842, 100 mg/kg",−0.397
same,Col5a1 Log2FC,"NM_015734, 100 mg/kg",−0.513
same,Isg15 Log2FC,"NM_015783, 100 mg/kg",−0.727
same,C6 Log2FC,"NM_016704, 100 mg/kg",−0.969
same,Smad3 Log2FC,"NM_016769, 100 mg/kg",−0.317
same,Irf3 Log2FC,"NM_016849, 100 mg/kg",−0.154
same,Ywhag Log2FC,"NM_018871, 100 mg/kg",0.305
same,Fbp1 Log2FC,"NM_019395, 100 mg/kg",−0.878
same,Ndufa1 Log2FC,"NM_019443, 100 mg/kg",0.226
same,Cpb2 Log2FC,"NM_019775, 100 mg/kg",−0.58
same,Uba52 Log2FC,"NM_019883, 100 mg/kg",0.484
same,Ube2d2a Log2FC,"NM_019912, 100 mg/kg",−0.237
same,Aldh9a1 Log2FC,"NM_019993, 100 mg/kg",0.545
same,Angpti4 Log2FC,"NM_020581, 100 mg/kg",0.707
same,Isg20 Log2FC,"NM_020583, 100 mg/kg",−0.48
same,Abcb11 Log2FC,"NM_021022, 100 mg/kg",−0.442
same,Tlr4 Log2FC,"NM_021297, 100 mg/kg",−0.608
same,Mlxipl Log2FC,"NM_021455, 100 mg/kg",0.439
same,Cxcl12 Log2FC,"NM_021704, 100 mg/kg",−0.597
same,Apoc3 Log2FC,"NM_023114, 100 mg/kg",−0.657
same,Kng1 Log2FC,"NM_023125, 100 mg/kg",−0.396
same,Cxcl16 Log2FC,"NM_023158, 100 mg/kg",−0.374
same,Em1 Log2FC,"NM_023913, 100 mg/kg",−0.533
same,Sec61b Log2FC,"NM_024171, 100 mg/kg",−0.355
same,Cyp27a1 Log2FC,"NM_024264, 100 mg/kg",−0.594
same,Fabp4 Log2FC,"NM_024406, 100 mg/kg",1.01
same,Spop Log2FC,"NM_025287, 100 mg/kg",0.186
same,Ndufb5 Log2FC,"NM_025316, 100 mg/kg",0.415
same,Ssr2 Log2FC,"NM_025448, 100 mg/kg",−0.177
same,Psenen Log2FC,"NM_025498, 100 mg/kg",−0.126
same,Ndufc1 Log2FC,"NM_025523, 100 mg/kg",0.438
same,Cox6b1 Log2FC,"NM_025628, 100 mg/kg",0.532
same,Uqcrh Log2FC,"NM_025641, 100 mg/kg",0.311
same,Uqcrfs1 Log2FC,"NM_025710, 100 mg/kg",0.255
same,Map1lc3a Log2FC,"NM_025735, 100 mg/kg",0.807
same,Ndufb8 Log2FC,"NM_026061, 100 mg/kg",0.327
same,Erp29 Log2FC,"NM_026129, 100 mg/kg",−0.217
same,Uqcrb Log2FC,"NM_026219, 100 mg/kg",0.476
same,Hikeshi Log2FC,"NM_026304, 100 mg/kg",0.233
same,Sugt1 Log2FC,"NM_026474, 100 mg/kg",0.185
same,Atg101 Log2FC,"NM_026566, 100 mg/kg",−0.436
same,Ndufs3 Log2FC,"NM_026688, 100 mg/kg",0.26
same,Anapc10 Log2FC,"NM_026904, 100 mg/kg",−0.291
same,Ifi35 Log2FC,"NM_027320, 100 mg/kg",−0.465
same,Pgm2 Log2FC,"NM_028132, 100 mg/kg",0.361
same,Phykpl Log2FC,"NM_028398, 100 mg/kg",−0.165
same,Pik3cb Log2FC,"NM_029094, 100 mg/kg",−0.421
same,Tlr1 Log2FC,"NM_030682, 100 mg/kg",−1.09
same,Hcar2 Log2FC,"NM_030701, 100 mg/kg",1.71
same,Cpn1 Log2FC,"NM_030703, 100 mg/kg",0.371
same,Slc2a2 Log2FC,"NM_031197, 100 mg/kg",−0.543
same,Lamtor2 Log2FC,"NM_031248, 100 mg/kg",0.195
same,Loxl2 Log2FC,"NM_033325, 100 mg/kg",−0.689
same,Derl2 Log2FC,"NM_033562, 100 mg/kg",−0.334
same,Ube2n Log2FC,"NM_080560, 100 mg/kg",−0.15
same,Elovl6 Log2FC,"NM_130450, 100 mg/kg",0.819
same,Acaca Log2FC,"NM_133360, 100 mg/kg",0.655
same,Fgg Log2FC,"NM_133862, 100 mg/kg",−0.517
same,Acacb Log2FC,"NM_133904, 100 mg/kg",0.612
same,Il1rap Log2FC,"NM_134103, 100 mg/kg",−0.815
same,Ptpa Log2FC,"NM_138748, 100 mg/kg",0.372
same,Mylk Log2FC,"NM_139300, 100 mg/kg",−0.458
same,Fcgr4 Log2FC,"NM_144559, 100 mg/kg",−0.541
same,Aldob Log2FC,"NM_144903, 100 mg/kg",−0.665
same,C1s1 Log2FC,"NM_144938, 100 mg/kg",−0.902
same,Txndc5 Log2FC,"NM_145367, 100 mg/kg",−0.284
same,Jak1 Log2FC,"NM_146145, 100 mg/kg",−0.203
same,C8a Log2FC,"NM_146148, 100 mg/kg",−1.21
same,Pkhd1 Log2FC,"NM_153179, 100 mg/kg",−0.99
same,Nckap1l Log2FC,"NM_153505, 100 mg/kg",−0.473
same,Mbtps2 Log2FC,"NM_172307, 100 mg/kg",0.309
same,Cyp4a12a Log2FC,"NM_177406, 100 mg/kg",1.65
same,Acaa2 Log2FC,"NM_177470, 100 mg/kg",0.464
same,Ep300 Log2FC,"NM_177821, 100 mg/kg",−0.258
same,Jmjd4 Log2FC,"NM_178659, 100 mg/kg",−0.385
same,Nceh1 Log2FC,"NM_178772, 100 mg/kg",0.592
same,Hadha Log2FC,"NM_178878, 100 mg/kg",1.12
same,Mfap3 Log2FC,"NM_180599, 100 mg/kg",−0.377
same,Fgb Log2FC,"NM_181849, 100 mg/kg",−0.336
same,Bst2 Log2FC,"NM_198095, 100 mg/kg",0.596
same,H2-Ab1 Log2FC,"NM_207105, 100 mg/kg",−0.716
same,Acsl4 Log2FC,"NM_207625, 100 mg/kg",0.645
same,Cflar Log2FC,"NM_207653, 100 mg/kg",−0.214
same,Egfr Log2FC,"NM_207655, 100 mg/kg",−1.12
same,Mapk9 Log2FC,"NM_207692, 100 mg/kg",0.185
same,Stat3 Log2FC,"NM_213659, 100 mg/kg",−0.646
same,H2-K1 Log2FC,"NM_001001892, 100 mg/kg",−0.284
same,Kdm2a Log2FC,"NM_001001984, 100 mg/kg",−0.312
same,Depdc5 Log2FC,"NM_001025426, 100 mg/kg",−0.27
same,Cfhr2 Log2FC,"NM_001025575, 100 mg/kg",−0.626
same,Ndufs5 Log2FC,"NM_001030274, 100 mg/kg",0.414
same,Itga1 Log2FC,"NM_001033228, 100 mg/kg",−0.394
same,Ndufb6 Log2FC,"NM_001033305, 100 mg/kg",0.243
same,Xaf1 Log2FC,"NM_001037713, 100 mg/kg",−0.742
same,Banf1 Log2FC,"NM_001038231, 100 mg/kg",0.319
same,Smurf1 Log2FC,"NM_001038627, 100 mg/kg",−0.697
same,Nrp2 Log2FC,"NM_001077403, 100 mg/kg",0.665
same,Ptafr Log2FC,"NM_001081211, 100 mg/kg",−0.518
same,Brpf3 Log2FC,"NM_001081315, 100 mg/kg",0.434
same,Rapgef2 Log2FC,"NM_001099624, 100 mg/kg",−0.262
same,Kng2 Log2FC,"NM_001102410, 100 mg/kg",−0.305
same,Aqp8 Log2FC,"NM_001109045, 100 mg/kg",−0.993
same,Igf1 Log2FC,"NM_001111274, 100 mg/kg",−0.496
same,Lrrc32 Log2FC,"NM_001113379, 100 mg/kg",−0.438
same,Stat5b Log2FC,"NM_001113563, 100 mg/kg",−0.322
same,Il1r1 Log2FC,"NM_001123382, 100 mg/kg",−0.998
same,Aldh7a1 Log2FC,"NM_001127338, 100 mg/kg",−0.252
same,Chuk Log2FC,"NM_001162410, 100 mg/kg",0.202
same,Mmm1 Log2FC,"NM_001163507, 100 mg/kg",−0.231
same,Cyfip1 Log2FC,"NM_001164661, 100 mg/kg",−0.264
same,Akt1 Log2FC,"NM_001165894, 100 mg/kg",−0.226
same,Cd84 Log2FC,"NM_001252472, 100 mg/kg",−0.439
same,Apoc2 Log2FC,"NM_001277944, 100 mg/kg",−1.26
same,Cd68 Log2FC,"NM_001291058, 100 mg/kg",−0.613
same,Col6a3 Log2FC,"XM_897036, 100 mg/kg",−1.06
